According to ChEMBL document CHEMBL3880381, “Selective inhibitors of aggrecanase in osteoarthritis treatment” (2001):

Key:
Collagenase 3 = Collagenase 3 (Homo sapiens, UniProt P45452); assay: Inhibition of APMA-activated recombinant human collagenase 3 preincubated with protein followed by addition of DNP-Pro-Cha-Gly-Cys(Me)-His-Ala-Lys(NMA)-NH2 as substrate measured every 5 mins for 1 hr by fluorescence analysis
Aggrecanase = target: T1, Aggrecanase (Sus scrofa, UniProt F1S1A7+F1SHP0); assay: Inhibition of aggrecanase in primary porcine chondrocytes assessed as inhibition of 35S-proteoglycan release measured after 9 to 12 hrs by liquid scintillation counting method; type: cell-based
T1 sequence (F1S1A7 whole entry): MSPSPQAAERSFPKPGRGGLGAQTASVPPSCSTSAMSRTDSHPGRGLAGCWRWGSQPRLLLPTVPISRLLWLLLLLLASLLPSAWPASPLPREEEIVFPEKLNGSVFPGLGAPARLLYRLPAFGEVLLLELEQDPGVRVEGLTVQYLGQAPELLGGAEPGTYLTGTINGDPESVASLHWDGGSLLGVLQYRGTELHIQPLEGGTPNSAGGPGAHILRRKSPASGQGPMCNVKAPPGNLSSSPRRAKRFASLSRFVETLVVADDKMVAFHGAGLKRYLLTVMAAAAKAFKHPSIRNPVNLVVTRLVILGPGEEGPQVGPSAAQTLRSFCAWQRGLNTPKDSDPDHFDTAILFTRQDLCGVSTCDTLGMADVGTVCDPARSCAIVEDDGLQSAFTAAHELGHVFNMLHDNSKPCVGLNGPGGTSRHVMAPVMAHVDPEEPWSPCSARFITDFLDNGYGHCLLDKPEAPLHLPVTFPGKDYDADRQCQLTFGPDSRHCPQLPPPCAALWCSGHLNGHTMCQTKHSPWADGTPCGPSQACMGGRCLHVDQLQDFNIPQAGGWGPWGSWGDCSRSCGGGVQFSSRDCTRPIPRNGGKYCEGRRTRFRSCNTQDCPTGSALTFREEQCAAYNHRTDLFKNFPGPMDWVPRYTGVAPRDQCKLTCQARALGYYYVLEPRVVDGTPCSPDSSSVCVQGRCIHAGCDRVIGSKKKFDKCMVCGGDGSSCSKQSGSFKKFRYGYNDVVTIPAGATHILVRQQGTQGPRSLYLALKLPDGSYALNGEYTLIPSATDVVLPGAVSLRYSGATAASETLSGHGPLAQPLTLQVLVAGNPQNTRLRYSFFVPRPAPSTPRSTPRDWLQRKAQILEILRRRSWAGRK
T1 sequence (F1SHP0 whole entry): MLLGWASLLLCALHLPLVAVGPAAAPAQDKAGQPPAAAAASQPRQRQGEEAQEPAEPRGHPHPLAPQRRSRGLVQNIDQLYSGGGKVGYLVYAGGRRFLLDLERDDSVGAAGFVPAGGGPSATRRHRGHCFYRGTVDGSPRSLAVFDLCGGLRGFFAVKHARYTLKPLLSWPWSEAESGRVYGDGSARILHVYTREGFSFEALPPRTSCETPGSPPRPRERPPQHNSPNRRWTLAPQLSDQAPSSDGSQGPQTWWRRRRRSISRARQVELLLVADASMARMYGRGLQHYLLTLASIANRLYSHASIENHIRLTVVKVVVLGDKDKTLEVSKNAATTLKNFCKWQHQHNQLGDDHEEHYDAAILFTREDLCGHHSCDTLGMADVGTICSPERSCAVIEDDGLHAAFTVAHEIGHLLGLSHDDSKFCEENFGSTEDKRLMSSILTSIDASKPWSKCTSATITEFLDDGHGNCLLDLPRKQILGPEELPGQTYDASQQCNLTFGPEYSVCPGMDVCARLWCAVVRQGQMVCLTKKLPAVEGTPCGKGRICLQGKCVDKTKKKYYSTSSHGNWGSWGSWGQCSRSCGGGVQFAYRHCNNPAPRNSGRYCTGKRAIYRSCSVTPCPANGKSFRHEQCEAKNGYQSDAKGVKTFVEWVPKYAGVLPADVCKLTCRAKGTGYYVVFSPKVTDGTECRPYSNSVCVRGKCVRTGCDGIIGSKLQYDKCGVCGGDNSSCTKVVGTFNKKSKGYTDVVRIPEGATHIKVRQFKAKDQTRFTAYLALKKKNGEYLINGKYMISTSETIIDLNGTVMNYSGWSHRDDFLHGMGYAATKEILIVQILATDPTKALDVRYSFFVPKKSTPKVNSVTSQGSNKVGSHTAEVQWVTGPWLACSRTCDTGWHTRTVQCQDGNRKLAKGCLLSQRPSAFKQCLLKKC

[1] = target: Disintegrin and metalloproteinase domain-containing protein 17 (Homo sapiens, UniProt P78536); assay: Inhibition of TACE in human mononuclear cells assessed as inhibition of LPS-induced TNF-alpha production measured after 4 hrs in presence of LPS by ELISA; type: cell-based
Disintegrin and metalloproteinase domain-containing protein 17, sequence (P78536 whole entry, the tested form may be a part): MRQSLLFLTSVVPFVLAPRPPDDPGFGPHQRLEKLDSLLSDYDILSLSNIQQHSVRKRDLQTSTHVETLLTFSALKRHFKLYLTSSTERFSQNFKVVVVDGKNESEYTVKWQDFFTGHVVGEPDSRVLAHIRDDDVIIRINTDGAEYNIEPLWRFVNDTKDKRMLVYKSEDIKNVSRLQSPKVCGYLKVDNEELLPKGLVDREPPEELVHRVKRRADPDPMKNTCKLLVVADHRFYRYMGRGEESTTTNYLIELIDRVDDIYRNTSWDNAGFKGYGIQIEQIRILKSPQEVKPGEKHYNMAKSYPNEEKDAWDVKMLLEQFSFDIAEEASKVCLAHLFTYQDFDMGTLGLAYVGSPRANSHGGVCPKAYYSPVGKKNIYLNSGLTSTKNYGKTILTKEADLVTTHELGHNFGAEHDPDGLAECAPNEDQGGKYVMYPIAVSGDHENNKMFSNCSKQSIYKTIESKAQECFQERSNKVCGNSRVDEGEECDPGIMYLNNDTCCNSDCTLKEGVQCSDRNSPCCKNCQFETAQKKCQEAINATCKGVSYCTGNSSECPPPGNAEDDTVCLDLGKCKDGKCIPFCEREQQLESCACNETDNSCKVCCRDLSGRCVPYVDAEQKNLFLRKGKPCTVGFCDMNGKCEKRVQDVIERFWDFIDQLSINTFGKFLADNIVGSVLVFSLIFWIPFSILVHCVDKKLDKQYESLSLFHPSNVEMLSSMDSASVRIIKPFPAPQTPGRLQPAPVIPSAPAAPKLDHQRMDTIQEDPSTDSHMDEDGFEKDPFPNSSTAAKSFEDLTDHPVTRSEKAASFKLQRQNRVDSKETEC

Interstitial collagenase = target: T2, Interstitial collagenase (Homo sapiens, UniProt P03956); assay: Inhibition of trypsin-activated recombinant human collagenase 1 preincubated with protein followed by addition of DNP-Pro-Cha-Gly-Cys(Me)-His-Ala-Lys(NMA)-NH2 as substrate measured after 20 mins by fluorescence analysis
T2 sequence (P03956 whole entry): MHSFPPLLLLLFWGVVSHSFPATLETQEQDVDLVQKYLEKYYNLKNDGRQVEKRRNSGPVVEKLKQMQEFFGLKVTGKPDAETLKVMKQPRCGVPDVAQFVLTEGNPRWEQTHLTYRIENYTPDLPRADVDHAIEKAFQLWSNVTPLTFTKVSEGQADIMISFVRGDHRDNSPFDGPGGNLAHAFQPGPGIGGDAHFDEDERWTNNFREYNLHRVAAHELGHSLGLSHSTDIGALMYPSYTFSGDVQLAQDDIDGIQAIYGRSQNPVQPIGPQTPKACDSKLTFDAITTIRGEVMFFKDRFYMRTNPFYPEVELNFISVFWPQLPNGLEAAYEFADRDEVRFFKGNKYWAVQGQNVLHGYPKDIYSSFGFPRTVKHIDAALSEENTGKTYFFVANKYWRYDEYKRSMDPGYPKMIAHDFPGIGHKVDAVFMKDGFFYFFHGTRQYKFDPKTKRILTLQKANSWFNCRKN

CC1(C)C[C@@H](O)CN(S(=O)(=O)c2ccc(OCc3ccc(Cl)cc3Cl)cc2)[C@H]1C(=O)NO
IC50 (Collagenase 3): < 10 nM
IC50 (Aggrecanase): < 10 nM
IC50 [1]: 20000 to 40000 nM
IC50 (Interstitial collagenase): 200 to 1000 nM

C[C@@]1(O)CCCN(S(=O)(=O)c2ccc(OCc3ccccc3F)cc2)[C@H]1C(=O)NO
IC50 (Aggrecanase): 10 to 20 nM
IC50 [1]: 20000 to 40000 nM
IC50 (Interstitial collagenase): 20 to 200 nM

C[C@@]1(O)CCCN(S(=O)(=O)c2ccc(OCc3ccccc3Cl)cc2)[C@H]1C(=O)NO
IC50 (Collagenase 3): < 10 nM
IC50 (Aggrecanase): < 10 nM
IC50 [1]: < 10000 nM

Cc1ccc(F)cc1COc1ccc(S(=O)(=O)N2CCC[C@@](C)(O)[C@@H]2C(=O)NO)cc1
IC50 (Collagenase 3): < 10 nM
IC50 (Aggrecanase): 10 to 20 nM
IC50 [1]: < 10000 nM

Cc1ccccc1COc1ccc(S(=O)(=O)N2CCC[C@@](C)(O)[C@@H]2C(=O)NO)cc1
IC50 (Collagenase 3): < 10 nM
IC50 (Aggrecanase): < 10 nM
IC50 [1]: < 10000 nM
IC50 (Interstitial collagenase): 200 to 1000 nM

C[C@@]1(O)CCCN(S(=O)(=O)c2ccc(OCc3ccc(F)cc3Cl)cc2)[C@H]1C(=O)NO
IC50 (Collagenase 3): < 10 nM
IC50 (Aggrecanase): < 10 nM
IC50 [1]: 10000 to 20000 nM
IC50 (Interstitial collagenase): 200 to 1000 nM

Cc1c(F)cccc1COc1ccc(S(=O)(=O)N2C[C@H](O)CC(C)(C)[C@@H]2C(=O)NO)cc1
IC50 (Collagenase 3): < 10 nM
IC50 (Aggrecanase): < 10 nM
IC50 [1]: < 10000 nM
IC50 (Interstitial collagenase): 200 to 1000 nM

Cc1cc(F)ccc1COc1ccc(S(=O)(=O)N2C[C@H](O)CC(C)(C)[C@@H]2C(=O)NO)cc1
IC50 (Collagenase 3): < 10 nM
IC50 (Aggrecanase): < 10 nM
IC50 [1]: < 10000 nM
IC50 (Interstitial collagenase): 200 to 1000 nM

Cc1c(F)cccc1COc1ccc(S(=O)(=O)N2CCC[C@@](C)(O)[C@@H]2C(=O)NO)cc1
IC50 (Collagenase 3): < 10 nM
IC50 (Aggrecanase): 10 to 20 nM
IC50 [1]: < 10000 nM
IC50 (Interstitial collagenase): > 1000 nM

Cc1cc(F)ccc1COc1ccc(S(=O)(=O)N2CCC[C@@](C)(O)[C@@H]2C(=O)NO)cc1
IC50 (Collagenase 3): < 10 nM
IC50 (Aggrecanase): < 10 nM
IC50 [1]: < 10000 nM

CC1(C)C[C@@H](O)CN(S(=O)(=O)c2ccc(OCc3ccccc3Br)cc2)[C@H]1C(=O)NO
IC50 (Collagenase 3): < 10 nM
IC50 (Aggrecanase): 10 to 20 nM
IC50 [1]: < 10000 nM
IC50 (Interstitial collagenase): 200 to 1000 nM

CC1(C)C[C@@H](O)CN(S(=O)(=O)c2ccc(OCc3ccc(F)cc3Cl)cc2)[C@H]1C(=O)NO
IC50 (Collagenase 3): < 10 nM
IC50 (Aggrecanase): < 10 nM
IC50 [1]: 10000 to 20000 nM
IC50 (Interstitial collagenase): 200 to 1000 nM

NS(=O)(=O)c1ccc(CCNC(=O)[C@H](CC2CCCCC2)NC(=O)[C@H](CCCc2ccccc2)CC(=O)NO)cc1
IC50 [1]: 3000 nM

CCc1ccccc1COc1ccc(S(=O)(=O)N2CCN(C(=O)NC)[C@@H](C)[C@@H]2C(=O)NO)cc1
IC50 (Collagenase 3): 20 to 200 nM
IC50 (Aggrecanase): < 10 nM
IC50 [1]: < 10000 nM
IC50 (Interstitial collagenase): > 1000 nM

Cc1cc(F)ccc1COc1ccc(S(=O)(=O)N2CC(=O)N[C@@H](C)[C@@H]2C(=O)NO)cc1
IC50 (Collagenase 3): 10 to 20 nM
IC50 (Aggrecanase): < 10 nM
IC50 [1]: < 10000 nM
IC50 (Interstitial collagenase): > 1000 nM

Cc1ccccc1COc1ccc(S(=O)(=O)N2CCC[C@](C)(O)[C@@H]2C(=O)NO)cc1
IC50 (Collagenase 3): < 10 nM
IC50 (Aggrecanase): 10 to 20 nM
IC50 [1]: < 10000 nM
IC50 (Interstitial collagenase): 200 to 1000 nM

C[C@@]1(O)CCCN(S(=O)(=O)c2ccc(OCc3ccc(Cl)cc3Cl)cc2)[C@H]1C(=O)NO
IC50 (Collagenase 3): < 10 nM
IC50 (Aggrecanase): < 10 nM
IC50 [1]: 10000 to 20000 nM
IC50 (Interstitial collagenase): 200 to 1000 nM

CNC(=O)N1CCN(S(=O)(=O)c2ccc(OCc3ccc(F)cc3F)cc2)[C@@H](C(=O)NO)[C@@H]1C
IC50 (Collagenase 3): < 10 nM
IC50 (Aggrecanase): 10 to 20 nM
IC50 [1]: 10000 to 20000 nM
IC50 (Interstitial collagenase): 200 to 1000 nM

CC1(C)C[C@@H](O)CN(S(=O)(=O)c2ccc(OCc3cc(Cl)ccc3F)cc2)[C@H]1C(=O)NO
IC50 (Collagenase 3): < 10 nM
IC50 (Aggrecanase): 10 to 20 nM
IC50 [1]: 10000 to 20000 nM
IC50 (Interstitial collagenase): 200 to 1000 nM

C[C@@]1(O)CCCN(S(=O)(=O)c2ccc(OCc3ccc(F)cc3F)cc2)[C@H]1C(=O)NO
IC50 (Collagenase 3): < 10 nM
IC50 (Aggrecanase): 10 to 20 nM
IC50 [1]: 10000 to 20000 nM
IC50 (Interstitial collagenase): 200 to 1000 nM

CC1(C)C[C@@H](O)CN(S(=O)(=O)c2ccc(OCc3ccc(F)cc3)cc2)[C@H]1C(=O)NO
IC50 (Collagenase 3): < 10 nM
IC50 (Aggrecanase): < 10 nM
IC50 [1]: 10000 to 20000 nM
IC50 (Interstitial collagenase): 20 to 200 nM

Cc1ccccc1COc1ccc(S(=O)(=O)N2CCN(C(=O)CN)[C@@H](C)[C@@H]2C(=O)NO)cc1
IC50 (Collagenase 3): 20 to 200 nM
IC50 (Aggrecanase): < 10 nM
IC50 [1]: < 10000 nM
IC50 (Interstitial collagenase): > 1000 nM

Cc1ccc(F)cc1COc1ccc(S(=O)(=O)N2CC(=O)N[C@@H](C)[C@@H]2C(=O)NO)cc1
IC50 (Collagenase 3): 10 to 20 nM
IC50 (Aggrecanase): < 10 nM
IC50 [1]: < 10000 nM
IC50 (Interstitial collagenase): > 1000 nM

Cc1ccc(Cl)cc1COc1ccc(S(=O)(=O)N2C[C@H](O)CC(C)(C)[C@@H]2C(=O)NO)cc1
IC50 (Collagenase 3): 20 to 200 nM
IC50 (Aggrecanase): 10 to 20 nM
IC50 [1]: 10000 to 20000 nM
IC50 (Interstitial collagenase): > 1000 nM

CNC(=O)N1CCN(S(=O)(=O)c2ccc(OCc3cc(F)ccc3C)cc2)[C@@H](C(=O)NO)[C@@H]1C
IC50 (Collagenase 3): < 10 nM
IC50 (Aggrecanase): < 10 nM
IC50 [1]: < 10000 nM
IC50 (Interstitial collagenase): > 1000 nM

CNC(=O)[C@H](Cc1ccc(OC)cc1)NC(=O)[C@@H](CC(=O)NO)CC(C)C
IC50 (Collagenase 3): 1 nM
